Key:
[1] = tested on: “anxiogenic” effects of CRF; conditions: cited from earlier work; for effect on the “anxiogenic” effects / actions of CRF in the conflict test: rats, literature (Britton et al.)

melting point	Structure (SMILES)	effect on the “anxiogenic” effects / actions of CRF in the conflict test [1]	behavioral activity alone in the operant conflict test ([1]; compound alone, without CRF, literature (Britton et al. 1988))
119 to 120 °C	CCc1nc2c(-c3ccc(OC(F)(F)F)cc3Cl)ncnc2n1C(C1CC1)C1CC1 [Example 8, 6-(2-Chloro-4-trifluoromethoxyphenyl)-9-dicyclopropylmethyl-8-ethylpurine]	–	–
–	CNC(=O)c1cc2c(cn1)[nH]c1ccccc12 [FG7142]	enhanced the actions of CRF	–
–	CCOC(=O)c1ncn2c1CN(C)C(=O)c1cc(F)ccc1-2 [Ro15-1788]	reversed the effects of CRF in a dose-dependent manner	without behavioral activity alone
99 to 100 °C	CCCC(C)n1c(CC)nc2c(-c3ccc(OC(F)F)cc3Cl)ncnc21 (centres unmarked) [Example 10, 6-(2-Chloro-4-difluoromethoxyphenyl)-8-ethyl-9-(2-pentyl)purine]	–	–

From US7045529B2, “Imidazopyrimidinyl and imidazopyri dinyl derivatives” (Bristol-Myers Squibb Company, priority 1999, dated 2006)
